According to US20240018158A1, “BRM TARGETING COMPOUNDS AND ASSOCIATED METHODS OF USE” (Prelude Therapeutics Incorporated, priority 2020, published 2024):

Assays:
SMARCA4 = SMARCA4 (Homo sapiens (Human), UniProt P51532); experiment: SMARCA4 HiBiT degradation assay in HeLa cells; format: cell-based; settings: 18 hours; for DC50: read-out: DC50 (SM4-HeLa) SMARCA4 degradation potency; for Dmax: HeLa, read-out: Dmax % (SM4-HeLa) maximum SMARCA4 degradation within the concentrations tested
Procedure, shortened: (§1)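 HeLa monoclonal lines carrying a heterozygous HiBiT knock-in on SMARCA2 or SMARCA4 were seeded at 2500 cells/well in EMEM with 10% FBS. After 18 h compound exposure at 37 °C, Nano-Glo HiBiT lytic detection ran 30-60 min at RT before the luminescence read. Values are from curve fits.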

SMARCA2 = SMARCA2 (Homo sapiens (Human), UniProt P51531); experiment: SMARCA2 HiBiT degradation assay in HeLa cells; format: cell-based; settings: 18 hours; for DC50: read-out: DC50 (SM2-HeLa) SMARCA2 degradation potency; for Dmax: read-out: Dmax % (SM2-HeLa) maximum SMARCA2 degradation within the concentrations tested
Procedure, shortened: as §1

SMARCA2, sequence (P51531 whole entry): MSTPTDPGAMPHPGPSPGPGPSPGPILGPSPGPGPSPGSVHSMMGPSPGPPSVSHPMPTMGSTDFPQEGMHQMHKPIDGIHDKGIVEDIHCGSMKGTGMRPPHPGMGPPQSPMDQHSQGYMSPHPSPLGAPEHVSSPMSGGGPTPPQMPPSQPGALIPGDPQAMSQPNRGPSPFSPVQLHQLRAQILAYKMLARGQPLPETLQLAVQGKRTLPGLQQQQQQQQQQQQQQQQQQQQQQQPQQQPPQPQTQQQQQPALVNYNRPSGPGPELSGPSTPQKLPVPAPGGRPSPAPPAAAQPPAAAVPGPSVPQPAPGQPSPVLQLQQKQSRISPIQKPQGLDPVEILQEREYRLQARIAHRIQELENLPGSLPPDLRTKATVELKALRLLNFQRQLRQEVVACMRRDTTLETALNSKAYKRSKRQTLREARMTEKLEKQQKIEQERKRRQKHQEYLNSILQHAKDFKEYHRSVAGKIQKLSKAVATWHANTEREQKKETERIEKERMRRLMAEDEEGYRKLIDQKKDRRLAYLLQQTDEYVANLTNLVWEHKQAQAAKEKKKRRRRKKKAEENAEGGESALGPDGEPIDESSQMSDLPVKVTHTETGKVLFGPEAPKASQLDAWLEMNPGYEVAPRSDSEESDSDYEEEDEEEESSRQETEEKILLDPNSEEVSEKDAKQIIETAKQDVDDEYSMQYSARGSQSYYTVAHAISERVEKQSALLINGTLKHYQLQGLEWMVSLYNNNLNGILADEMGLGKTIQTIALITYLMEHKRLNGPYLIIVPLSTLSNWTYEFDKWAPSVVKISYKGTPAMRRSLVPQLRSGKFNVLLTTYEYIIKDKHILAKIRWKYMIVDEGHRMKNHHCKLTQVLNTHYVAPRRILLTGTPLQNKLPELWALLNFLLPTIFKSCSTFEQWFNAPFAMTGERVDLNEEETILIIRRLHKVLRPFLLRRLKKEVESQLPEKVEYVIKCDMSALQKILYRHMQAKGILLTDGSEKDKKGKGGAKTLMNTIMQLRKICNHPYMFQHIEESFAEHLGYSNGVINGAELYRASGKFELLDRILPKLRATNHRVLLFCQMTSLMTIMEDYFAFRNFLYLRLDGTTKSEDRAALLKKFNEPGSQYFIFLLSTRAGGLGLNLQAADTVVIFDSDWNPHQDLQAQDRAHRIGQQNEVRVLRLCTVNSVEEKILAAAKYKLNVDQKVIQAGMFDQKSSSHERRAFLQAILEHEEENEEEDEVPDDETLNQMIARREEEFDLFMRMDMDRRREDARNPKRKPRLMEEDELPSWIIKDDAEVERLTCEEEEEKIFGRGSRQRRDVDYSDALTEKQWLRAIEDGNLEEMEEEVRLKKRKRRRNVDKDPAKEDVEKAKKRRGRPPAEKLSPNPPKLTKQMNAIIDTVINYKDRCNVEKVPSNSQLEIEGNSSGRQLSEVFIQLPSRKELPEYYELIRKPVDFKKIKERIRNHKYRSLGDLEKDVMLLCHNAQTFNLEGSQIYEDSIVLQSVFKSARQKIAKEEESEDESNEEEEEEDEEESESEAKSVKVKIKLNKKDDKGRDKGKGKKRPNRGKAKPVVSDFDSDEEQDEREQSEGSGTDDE
SMARCA4, sequence (P51532 whole entry): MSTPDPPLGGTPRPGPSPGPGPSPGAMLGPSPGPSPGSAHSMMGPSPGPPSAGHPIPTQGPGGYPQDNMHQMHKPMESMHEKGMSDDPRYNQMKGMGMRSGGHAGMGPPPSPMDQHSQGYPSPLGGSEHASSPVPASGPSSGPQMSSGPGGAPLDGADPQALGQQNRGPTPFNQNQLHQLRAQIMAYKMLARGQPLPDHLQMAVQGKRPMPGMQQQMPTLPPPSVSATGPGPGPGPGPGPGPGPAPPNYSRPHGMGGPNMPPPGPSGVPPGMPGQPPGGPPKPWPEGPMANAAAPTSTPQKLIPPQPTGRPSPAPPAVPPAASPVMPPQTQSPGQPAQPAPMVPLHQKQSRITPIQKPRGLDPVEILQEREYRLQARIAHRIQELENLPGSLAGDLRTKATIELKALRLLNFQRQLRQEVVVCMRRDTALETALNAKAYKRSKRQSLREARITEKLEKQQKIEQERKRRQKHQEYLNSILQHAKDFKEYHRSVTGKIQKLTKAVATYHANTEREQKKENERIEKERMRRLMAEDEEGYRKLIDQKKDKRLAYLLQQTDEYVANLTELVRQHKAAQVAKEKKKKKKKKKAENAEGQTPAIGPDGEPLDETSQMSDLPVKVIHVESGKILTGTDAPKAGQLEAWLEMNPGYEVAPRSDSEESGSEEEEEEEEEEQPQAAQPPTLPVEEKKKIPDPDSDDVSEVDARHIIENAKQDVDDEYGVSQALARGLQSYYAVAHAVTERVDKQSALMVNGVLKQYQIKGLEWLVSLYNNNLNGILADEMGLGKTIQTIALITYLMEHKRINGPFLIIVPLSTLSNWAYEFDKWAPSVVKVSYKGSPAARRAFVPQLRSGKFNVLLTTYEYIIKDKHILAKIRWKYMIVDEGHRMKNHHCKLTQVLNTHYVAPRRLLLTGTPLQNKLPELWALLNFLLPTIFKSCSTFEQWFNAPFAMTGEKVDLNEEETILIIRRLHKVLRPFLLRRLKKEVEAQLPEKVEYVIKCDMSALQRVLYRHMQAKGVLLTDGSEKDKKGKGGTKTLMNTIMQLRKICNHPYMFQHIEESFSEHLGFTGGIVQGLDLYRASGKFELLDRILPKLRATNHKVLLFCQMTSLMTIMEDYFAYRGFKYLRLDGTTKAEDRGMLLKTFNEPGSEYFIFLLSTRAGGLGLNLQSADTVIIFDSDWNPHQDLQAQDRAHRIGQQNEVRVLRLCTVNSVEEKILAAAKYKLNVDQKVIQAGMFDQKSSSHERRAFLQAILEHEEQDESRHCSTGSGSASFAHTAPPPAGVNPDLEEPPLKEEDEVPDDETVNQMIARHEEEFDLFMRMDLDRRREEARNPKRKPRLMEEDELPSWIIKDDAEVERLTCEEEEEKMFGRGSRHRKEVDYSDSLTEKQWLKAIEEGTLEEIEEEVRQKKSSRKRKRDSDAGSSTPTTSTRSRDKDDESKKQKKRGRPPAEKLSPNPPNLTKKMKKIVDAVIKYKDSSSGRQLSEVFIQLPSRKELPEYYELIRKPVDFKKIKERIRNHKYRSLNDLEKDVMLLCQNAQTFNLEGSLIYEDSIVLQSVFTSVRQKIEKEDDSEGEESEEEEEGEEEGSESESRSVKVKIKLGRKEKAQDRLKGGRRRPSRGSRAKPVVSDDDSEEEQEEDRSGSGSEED

With `CCC(CN1CCC(N2CCN3c4cc(-c5ccccc5O)nnc4NC[C@H]3C2)C1)Oc1cc(C(C(=O)N2C[C@H](O)C[C@H]2C(=O)N[C@@H](C)c2ccc(-c3scnc3C)cc2)C(C)C)on1` (stereo partly drawn) [Example 61, (2S,4R)-4-hydroxy-1-(2-(3-((1-(3-((S)-2-(2-hydroxyphenyl)-5,6,6a,7,9,10-hexahydro-8H-pyrazino[1′,2′:4,5]pyrazino[2,3-c]pyridazin-8-yl)pyrrolidin-1-yl)butan-2-yl)oxy)isoxazol-5-yl)-3-methylbutanoyl)-N-((S)-1-(4-(4-methylthiazol-5-yl)phenyl)ethyl)pyrrolidine-2-carboxamide] the “Dmax % (SM4-HeLa) maximum SMARCA4 degradation within the concentrations tested” value (SMARCA4) was “B (B = 50%< Dmax <=75%)”, the DC50 (SMARCA4) was less than 100 nM and the DC50 (SMARCA2) was less than 100 nM. For the same molecule, the Dmax (SMARCA2) was greater than 75%.

With `CCC(CN1CCC(N2CCN3c4cc(-c5ccccc5O)nnc4NC[C@H]3C2)C1)Oc1cc(C(C(=O)N2C[C@H](O)C[C@H]2C(=O)N[C@@H](C)c2ccc(-c3scnc3C)cc2)C(C)C)on1` (stereo partly drawn) [Example 62, (2S,4R)-4-hydroxy-1-(2-(3-((1-(3-((S)-2-(2-hydroxyphenyl)-5,6,6a,7,9,10-hexahydro-8H-pyrazino[1′,2′:4,5]pyrazino[2,3-c]pyridazin-8-yl)pyrrolidin-1-yl)butan-2-yl)oxy)isoxazol-5-yl)-3-methylbutanoyl)-N-((S)-1-(4-(4-methylthiazol-5-yl)phenyl)ethyl)pyrrolidine-2-carboxamide] the “Dmax % (SM4-HeLa) maximum SMARCA4 degradation within the concentrations tested” value (SMARCA4) was “A/A (A = Dmax >75%)”, the DC50 (SMARCA4) was less than 100 nM and the “Dmax % (SM2-HeLa) maximum SMARCA2 degradation within the concentrations tested” value (SMARCA2) was “A/A (A = Dmax >75%)”. For the same molecule, the DC50 (SMARCA2) was less than 100 nM.

Work on `Cc1ncsc1-c1ccc([C@H](C)NC(=O)[C@@H]2C[C@@H](O)CN2C(=O)[C@@H](c2cc(OCCN3CCC(N4CCN5c6cc(-c7ccccc7O)nnc6NCC5(C)C4)CC3)no2)C(C)C)cc1` (stereo partly drawn) [Example 63, (2S,4R)-4-hydroxy-1-((2R)-2-(3-(2-(4-(2-(2-hydroxyphenyl)-6a-methyl-5,6,6a,7,9,10-hexahydro-8H-pyrazino[1′,2′:4,5]pyrazino[2,3-c]pyridazin-8-yl)piperidin-1-yl)ethoxy)isoxazol-5-yl)-3-methylbutanoyl)-N-((S)-1-(4-(4-methylthiazol-5-yl)phenyl)ethyl)pyrrolidine-2-carboxamide] yielded a DC50 (SMARCA4) of less than 100 nM, a Dmax (SMARCA4) greater than 75% and a DC50 (SMARCA2) of less than 100 nM. The Dmax (SMARCA2) was greater than 75%.

`Cc1ncsc1-c1ccc([C@H](C)NC(=O)[C@@H]2C[C@@H](O)CN2C(=O)[C@@H](c2cc(O[C@@H](C)CN3CCC(N4CCN5c6cc(-c7ccccc7O)nnc6NCC5(C)C4)C3)no2)C(C)C)cc1` (stereo partly drawn) [Example 64, (2S,4R)-4-hydroxy-1-((2R)-2-(3-(((2S)-1-(3-(2-(2-hydroxyphenyl)-6a-methyl-5,6,6a,7,9,10-hexahydro-8H-pyrazino[1′,2′:4,5]pyrazino[2,3-c]pyridazin-8-yl)pyrrolidin-1-yl)propan-2-yl)oxy)isoxazol-5-yl)-3-methylbutanoyl)-N-((S)-1-(4-(4-methylthiazol-5-yl)phenyl)ethyl)pyrrolidine-2-carboxamide] gave a DC50 (SMARCA4) of less than 100 nM, a Dmax (SMARCA4) greater than 75% and a DC50 (SMARCA2) of less than 100 nM. It also gave a Dmax (SMARCA2) greater than 75%.

Molecule `Cc1ncsc1-c1ccc([C@H](C)NC(=O)[C@@H]2C[C@@H](O)CN2C(=O)[C@@H](c2cc(OC(C)CN3CCCC(CN4CCN5c6cc(-c7ccccc7O)nnc6NC[C@H]5C4)CC3)no2)C(C)C)cc1` (stereo partly drawn) [Example 68, (2S,4R)-4-hydroxy-1-((2R)-2-(3-((1-(4-(((S)-2-(2-hydroxyphenyl)-5,6,6a,7,9,10-hexahydro-8H-pyrazino[1′,2′:4,5]pyrazino[2,3-c]pyridazin-8-yl)methyl)azepan-1-yl)propan-2-yl)oxy)isoxazol-5-yl)-3-methylbutanoyl)-N-((S)-1-(4-(4-methylthiazol-5-yl)phenyl)ethyl)pyrrolidine-2-carboxamide] has a DC50 (SMARCA4) of 100 to 1000 nM, a Dmax (SMARCA4) greater than 75% and a DC50 (SMARCA2) of less than 100 nM. It also gave a Dmax (SMARCA2) greater than 75%.

Work on `Cc1ncsc1-c1ccc([C@H](C)NC(=O)[C@@H]2C[C@@H](O)CN2C(=O)[C@@H](c2cc(OCCN3CCC(N4CCN5c6cc(-c7ccccc7O)nnc6NCC5(C)C4)C3)no2)C(C)C)cc1` (stereo partly drawn) [Example 71, (2S,4R)-4-hydroxy-1-((2R)-2-(3-(2-(3-(2-(2-hydroxyphenyl)-6a-methyl-5,6,6a,7,9,10-hexahydro-8H-pyrazino[1′,2′:4,5]pyrazino[2,3-c]pyridazin-8-yl)pyrrolidin-1-yl)ethoxy)isoxazol-5-yl)-3-methylbutanoyl)-N-((S)-1-(4-(4-methylthiazol-5-yl)phenyl)ethyl)pyrrolidine-2-carboxamide] yielded a DC50 (SMARCA4) of less than 100 nM, a Dmax (SMARCA4) greater than 75% and a DC50 (SMARCA2) of less than 100 nM. The Dmax (SMARCA2) was greater than 75%.

`Cc1ncsc1-c1ccc([C@H](C)NC(=O)[C@@H]2C[C@@H](O)CN2C(=O)[C@@H](c2cc(OCCN3CCC(N4CCN5c6cc(-c7ccccc7O)nnc6NCC5(C)C4)C3)no2)C(C)C)cc1` (stereo partly drawn) [Example 72, (2S,4R)-4-hydroxy-1-((2R)-2-(3-(2-(3-(2-(2-hydroxyphenyl)-6a-methyl-5,6,6a,7,9,10-hexahydro-8H-pyrazino[1′,2′:4,5]pyrazino[2,3-c]pyridazin-8-yl)pyrrolidin-1-yl)ethoxy)isoxazol-5-yl)-3-methylbutanoyl)-N-((S)-1-(4-(4-methylthiazol-5-yl)phenyl)ethyl)pyrrolidine-2-carboxamide] was tested, and the DC50 (SMARCA4) was less than 100 nM and the DC50 (SMARCA2) was less than 100 nM.

Work on `Cc1ncsc1-c1ccc([C@H](C)NC(=O)[C@@H]2C[C@@H](O)CN2C(=O)[C@@H](c2cc(O[C@H](C)C(=O)N3CCC(N4CCN5c6cc(-c7ccccc7O)nnc6NC[C@H]5C4)CC3)no2)C(C)C)cc1` [Example 73, (2S,4R)-4-hydroxy-1-((R)-2-(3-(((R)-1-(4-((S)-2-(2-hydroxyphenyl)-5,6,6a,7,9,10-hexahydro-8H-pyrazino[1′,2′:4,5]pyrazino[2,3-c]pyridazin-8-yl)piperidin-1-yl)-1-oxopropan-2-yl)oxy)isoxazol-5-yl)-3-methylbutanoyl)-N-((S)-1-(4-(4-methylthiazol-5-yl)phenyl)ethyl)pyrrolidine-2-carboxamide] yielded a DC50 (SMARCA4) of 100 to 1000 nM, a Dmax (SMARCA4) of 50 to 75% and a DC50 (SMARCA2) of less than 100 nM. The Dmax (SMARCA2) was greater than 75%.

`Cc1ncsc1-c1ccc([C@H](C)NC(=O)[C@@H]2C[C@@H](O)CN2C(=O)[C@@H](c2cc(OCCN3CCC(N4CCN5c6cc(-c7ccccc7O)nnc6NC[C@H]5C4)CC3)no2)C(C)C)cc1` [Example 76, (2S,4R)-4-hydroxy-1-((R)-2-(3-(2-(4-((S)-2-(2-hydroxyphenyl)-5,6,6a,7,9,10-hexahydro-8H-pyrazino[1′,2′:4,5]pyrazino[2,3-c]pyridazin-8-yl)piperidin-1-yl)ethoxy)isoxazol-5-yl)-3-methylbutanoyl)-N-((S)-1-(4-(4-methylthiazol-5-yl)phenyl)ethyl)pyrrolidine-2-carboxamide] gave a DC50 (SMARCA4) of less than 100 nM, a Dmax (SMARCA4) greater than 75% and a DC50 (SMARCA2) of less than 100 nM. For the same molecule, the Dmax (SMARCA2) was greater than 75%.

In the case of `Cc1ncsc1-c1ccc([C@H](C)NC(=O)[C@@H]2C[C@@H](O)CN2C(=O)[C@@H](c2cc(OCCN3CC=C(CN4CCN5c6cc(-c7ccccc7O)nnc6NC[C@H]5C4)CC3)no2)C(C)C)cc1` [Example 90, (2S,4R)-4-hydroxy-1-((R)-2-(3-(2-(4-(((S)-2-(2-hydroxyphenyl)-5,6,6a,7,9,10-hexahydro-8H-pyrazino[1′,2′:4,5]pyrazino[2,3-c]pyridazin-8-yl)methyl)-3,6-dihydropyridin-1(2H)-yl)ethoxy)isoxazol-5-yl)-3-methylbutanoyl)-N-((S)-1-(4-(4-methylthiazol-5-yl)phenyl)ethyl)pyrrolidine-2-carboxamide], the DC50 (SMARCA4) is reported as less than 100 nM, the Dmax (SMARCA4) is reported as greater than 75% and the DC50 (SMARCA2) is reported as less than 100 nM. The Dmax (SMARCA2) was greater than 75%.
